From patent publication US20260224486A1, “DIANHYDROHEXITOL BASED IONIZABLE LIPIDS FOR NUCLEIC ACID DELIVERY” (SANOFI PASTEUR INC., priority 2023, published 2026)

Assays:
[1] = mRNA encapsulation efficiency of lipid nanoparticles (RiboGreen assay); type: physicochemical; conditions: hEPO mRNA LNP, Process A, Cationic Lipid:DMG-PEG2000:Cholesterol:DOPE 40:1.5:28.5:30 mol %, N/P 4
Source text: In embodiments, the lipid nanoparticle encapsulates a nucleic acid, optionally an mRNA encoding a peptide or protein. In embodiments, the lipid nanoparticle encapsulates an mRNA encoding a peptide or protein, optionally for use in a vaccine. In embodiments, the peptide is an antigen. As used herein, the phrase “encapsulation percentage” refers to the fraction of therapeutic agent (e.g. mRNA) that is effectively encapsulated within a liposomal-based vehicle (e.g. a lipid nanoparticle) relative to the initial fraction of therapeutic agent present in the lipid phase. In embodiments, the lipid nanoparticles have an encapsulation percentage for mRNA of at least 50%. In embodiments, the lipid nanoparticles have an encapsulation percentage for mRNA of at least 55%. In embodiments, the lipid nanoparticles have an encapsulation percentage for mRNA of at least 60%. In embodiments, the lipid nanoparticles have an encapsulation percentage for mRNA of at least 65%. In embodiments, the lipid nanoparticles have an encapsulation percentage for mRNA of at least 70%. In embodiments, the lipid nanoparticles have an encapsulation percentage for mRNA of at least 75%. In embodiments, the lipid nanoparticles have an encapsulation percentage for mRNA of at least 80%. In embodiments, the lipid nanoparticles have an encapsulation percentage for mRNA of at least 85%. In embodiments, the lipid nanoparticles have an encapsulation percentage for mRNA of at least 90%. In embodiments, the lipid nanoparticles have an encapsulation percentage for mRNA of at least 95%. In embodiments, the encapsulation percentage is calculated by performing the Ribogreen assay (Invitrogen) with and without the presence of 0.1% Triton-X 100.
(§1) Lipid nanoparticle formulations of Table 1 were prepared by Process A. All of the lipid nanoparticle formulations comprised hEPO mRNA and the different lipids (Cationic Lipid: DMG-PEG2000: Cholesterol: DOPE) in mol % ratios of 40:1.5:28.5:30 (Cationic Lipid: DMG-PEG2000: Cholesterol: DOPE).
The RiboGreen Assay is a fluorescence-based method for the determination of mRNA concentration (Total and Free) and % encapsulation using Quant-iT™ RiboGreen® RNA reagent in mRNA containing lipid nanoparticles.
• To each of the standards (Blank, mRNA-1, mRNA-2. mRNA-3, mRNA-4, mRNA-5) and Samples (free mRNA and total mRNA), add 1.0 mL of 200-fold Ribogreen Reagent Solution and gently mix by inversion. This is a 2× Dilution. • Add 200 μL of each standard and sample in triplicate using the reverse pipetting technique in a 96-well Costar Black with Clear Background Plate. Ensure no bubbles are present in the plate before the fluorescence reading. • Read the fluorescence signal using the below instrument parameters: • Read Type: Fluorescence, Bottom Read • Excitation: 485 nm; Cut-off: 515 nm; Emission: 530 nm • Plate Type: 96-well Costar Black with Clear Background
The average fluorescence from each calibration standard is plotted against the concentration to generate a linear calibration curve using the MS Excel software. The coefficient of determination (R^2) of calibration curve must be R^2>0.99.
[formula] • Where, • Y=average fluorescence value • m: slope • x: concentration (pg/mL) • c: y-intercept • Using the linear equation, calculate the concentration of free and total mRNA concentration in the test sample by replacing the y value in the equation with the average fluorescence value of each respective sample • Once the concentration is determined, the actual concentration in the sample can be back-calculated by multiplying the concentration in the test sample with the dilution factor (DF) as follows:
[formula] [formula] • Concentration of encapsulated mRNA can be determined by subtracting the concentration of free mRNA from the total mRNA. • % Encapsulation can then be calculated by taking the ratio of encapsulated mRNA over total mRNA and multiplying the result with 100.

BALB/cJ mice = test: Delivery of hEPO mRNA by intramuscular administration of LNPs; serum hEPO by ELISA; type: in vivo, Mouse; conditions: for hEPO 6 Hr (ng/mL) Mean: Table 3, isomannide-derived lipids
Description: In summary, lipid screening studies were conducted with female BALB/cJ mice 6-8 weeks of age. Mice were dosed with 0.1 μg in 30 μL of LNPs by a single intramuscular (IM) injection into the gastrocnemius leg muscle. Blood samples were taken 6 and 24 hours post injection and hEPO levels were measured in the blood serum of the mice using an ELISA assay according to the manufacture's protocol.
Treatment Regimen: On Day 1, animals from Groups 1-33 were dosed via intramuscular injection while under light isoflurane anesthesia according to the study design table above. Animals in Groups 1-33 were injected with EPO mRNA LNPs in the right leg only. Groups 1 and 17 animals received MC3 control.
Interim Sample Collections: Interim whole blood (^~50 μL) was collected by tail snip or saphenous vein at 6 and 24 hours post dose administration (±5%). Blood samples were collected into serum separator tubes, allowed to clot at room temperature for at least 10 minutes, centrifuged at ambient temperature at minimum 1000 g for 10 minutes and the serum was extracted. All serum samples were stored at nominally −70° C. until analysis hEPO by the Testing Facility. The results of the EPO analysis were included in the Data Submission.
Terminal Blood Collections: Whole blood was collected via cardiac puncture into serum separator tube, allowed to clot at room temperature for at least 10 minutes, centrifuged at ambient temperature at minimum 1000 g for 10 minutes and the serum was extracted. Serum samples were stored at nominally −70° C. until analyzed for hEPO by the Test Facility.
ELISA Assay: Human erythropoietin (hEPO) levels in sera samples were determined by ELISA kit (R&D systems, Cat #DEP-00) according to the manufactory instruction and the results were included in the Data Submission. The “shaker” protocol was used. The serum samples were diluted between 1:40 and 1:100.

[2] = Lipid nanoparticle size and polydispersity index by dynamic light scattering (Malvern Zetasizer); type: physicochemical; conditions: hEPO mRNA LNP, Process A, Cationic Lipid:DMG-PEG2000:Cholesterol:DOPE 40:1.5:28.5:30 mol %, N/P 4
Source text: The lipid nanoparticles in the examples of the present invention were formulated using Process A of WO 2018/089801 (see, e.g., Example 1 and FIG. 1 of WO 2018/089801). Process A (“A”) relates to a conventional method of encapsulating mRNA by mixing mRNA with a mixture of lipids, without first pre-forming the lipids into lipid nanoparticles. In an exemplary process, an ethanolic solution of a mixture of lipids (cationic lipid, phosphatidylethanolamine, cholesterol, and polyethylene glycol-lipid) at a fixed lipid to mRNA ratio were combined with an aqueous buffered solution of target mRNA at an acidic pH under controlled conditions to yield a suspension of uniform LNPs. After ultrafiltration and diafiltration into a suitable diluent system, the resulting nanoparticle suspensions were diluted to final concentration, filtered, and stored frozen at −80° C. until use.
as §1
The Polydispersity Index (Pdl) of lipid nanoparticles can be determined by diluting the formulation in 10% trehalose at about 0.1 mg/ml mRNA concentration and then measuring the size on Malvern zetasizer. The lipid nanoparticle size can be obtained with Malvern Zetasizer Nano-ZS.
Dynamic light scattering (DLS) measurements were performed using a Malvern Instruments Zetasizer with a backscattering detector angle of 173° and a 4-mW, 633-nm He—Ne laser (Worcestershire, UK). The samples were analyzed by diluting in 10% Trehalose and measuring the size and Poly dispersity Index (PDI) in an optical grade polystyrene cuvette.

[3] = Table 2, isosorbide-derived lipids, mouse serum 6 hours post single IM injection of 0.1 μg hEPO mRNA LNP
[4] = mouse serum 6 hours post single IM injection of 0.1 μg hEPO mRNA LNP

Encapsulation efficiency (EE) % [1] | Polydispersity Index (PDI) [2] | Size (nm) [2] | Compound | hEPO 6 Hr (ng/ml) Mean (BALB/cJ mice; [3]) | hEPO 6 Hr (ng/ml) Mean (BALB/cJ mice; Table 4, further lipids, mouse serum 6 hours post IM injection of hEPO mRNA LNP as in example 3) | hEPO 6 Hr (ng/mL) Mean (BALB/cJ mice; [4])
96% | 0.139 | 78 nm | CCCCCCCCC(O)CN(CCCCC(=O)O[C@H]1CO[C@H]2[C@@H]1OC[C@H]2OC(=O)CCCCN(CC(O)CCCCCCCC)CC(O)CCCCCCCC)CC(O)CCCCCCCC (stereo partly shown) [Compound 21] | 31.6 ng/mL | – | –
91% | 0.1 | 75 nm | CCCCCCCCCCC(O)CN(CCCC(=O)O[C@H]1CO[C@H]2[C@@H]1OC[C@H]2OC(=O)CCCN(CC(O)CCCCCCCC)CC(O)CCCCCCCC)CC(O)CCCCCCCCCC (stereo partly shown) [Compound 22] | 34.1 ng/mL | – | –
96% | 0.13 | 81 nm | CCCCCCCCCCC(O)CN(CCCCC(=O)O[C@@H]1CO[C@H]2[C@@H]1OC[C@@H]2OC(=O)CCCN(CC(O)CCCCCCCCCC)CC(O)CCCCCCCCCC)CC(O)CCCCCCCCCC (stereo partly shown) [Compound 25] | 42.7 ng/mL | – | –
94% | 0.103 | 91 nm | CCCCCCCCCCCCC(O)CN(CCCCC(=O)O[C@H]1CO[C@H]2[C@@H]1OC[C@H]2OC(=O)CCCCN(CC(O)CCCCCCCCCCCC)CC(O)CCCCCCCCCCCC)CC(O)CCCCCCCCCCCC (stereo partly shown) [Compound 28] | 40.2 ng/mL | – | –
94% | 0.16 | 106 nm | CCCCCCCCCCCCCCCCC(O)CN(CCCC(=O)O[C@H]1CO[C@H]2[C@@H]1OC[C@H]2OC(=O)CCCN(CC(O)CCCCCCCCCCCCCCCC)CC(O)CCCCCCCCCCCCCCCC)CC(O)CCCCCCCCCCCCCCCC (stereo partly shown) [Compound 30] | 25.2 ng/mL | – | –
97% | 0.12 | 98 nm | CCCCCCCCCCCCCCCCC(O)CN(CCCCC(=O)O[C@@H]1CO[C@H]2[C@@H]1OC[C@H]2OC(=O)CCCCN(CC(O)CCCCCCCCCCCCCCCC)CC(O)CCCCCCCCCCCCCCCC)CC(O)CCCCCCCCCCCCCCCC (stereo partly shown) [Compound 31] | 14.1 ng/mL | – | –
99% | 0.11 | 109 nm | CCCCCCCCCCCOC(=O)CCCC(O)CN(CCCC(=O)O[C@H]1CO[C@H]2[C@@H]1OC[C@H]2OC(=O)CCCN(CC(O)CCCCCC(=O)OC(CCCCCCCC)CCCCCCCC)CC(O)CCCC(=O)OCCCCCCCCCCC)CC(O)CCCCCC(=O)OC(CCCCCCCC)CCCCCCCC (stereo partly shown) [Compound 33] | 17.6 ng/mL | – | –
92% | 0.1 | 84 nm | CCCCCC/C=C\COC(=O)CCCCCC(O)CN(CCCC(=O)O[C@@H]1CO[C@H]2[C@@H]1OC[C@@H]2SC(=O)CCCN(CC(O)CCCCCCCCCC)CC(O)CCCCCCCCCC)CC(O)CCCCCC(=O)OC/C=C\CCCCCC (stereo partly shown) [Compound 34] | 33.8 ng/mL | – | –
82% | 0.08 | 92 nm | CCCCCC/C=C\COC(=O)CCCCCC(O)CN(CCCC(=O)O[C@H]1CO[C@H]2[C@@H]1OC[C@H]2OC(=O)CCCN(CC(O)CCCCCC(=O)OC/C=C\CCCCCC)CC(O)CCCCCC(=O)OC/C=C\CCCCCC)CC(O)CCCCCC(=O)OC/C=C\CCCCCC (stereo partly shown) [Compound 35] | 28.5 ng/mL | – | –
88% | 0.2 | 94 nm | CCCCCCCCCCC(O)CN(CCCOC(=O)O[C@@H]1CO[C@H]2[C@@H]1OC[C@H]2OC(=O)OCCCN(CC(O)CCCCCCCCCC)CC(O)CCCCCCCCCC)CC(O)CCCCCCCCCC (stereo partly shown) [Compound 36] | – | 31.7 ng/mL | –
95% | 0.25 | 65 nm | CCCCCCCCCCCCC(O)CN(CCCOC(=O)O[C@@H]1CO[C@H]2[C@@H]1OC[C@H]2OC(=O)OCCCN(CC(O)CCCCCCCCCCCC)CC(O)CCCCCCCCCCCC)CC(O)CCCCCCCCCCCC (stereo partly shown) [Compound 37] | – | – | 27.4 ng/mL
72% | 0.12 | 69 nm | CCCCCCCCCCC(O)CN(CCCCOC(=O)O[C@@H]1CO[C@H]2[C@@H]1OC[C@H]2OC(=O)OCCCCN(CC(O)CCCCCCCCCC)CC(O)CCCCCCCCCC)CC(O)CCCCCCCCCC (stereo partly shown) [Compound 38] | – | – | 22.6 ng/mL

Compound | Encapsulation efficiency (EE) % [1] | Polydispersity Index (PDI) [2] | Size (nm) [2] | hEPO 6 Hr (ng/ml) Mean (BALB/cJ mice; [3]) | hEPO 6 Hr (ng/ml) Mean (BALB/cJ mice; Table 4, further lipids, mouse serum 6 hours post IM injection of hEPO mRNA LNP as in example 3) | hEPO 6 Hr (ng/mL) Mean (BALB/cJ mice; [4])
CCCCCCCCCCC(O)CN(CCCC(=O)O[C@H]1CO[C@H]2[C@@H]1OC[C@H]2OC(=O)CCCN(CC(O)CCCCCCCCCC)CC(O)CCCCCCCCCC)CC(O)CCCCCCCCCC (stereo partly shown) [Compound 29] | 96% | 0.13 | 126 nm | 38.4 ng/mL | – | –
